# Data published in ChEMBL document CHEMBL1124205, “Synthesis and antiviral evaluation of 6'-substituted aristeromycins: potential mechanism-based inhibitors of S-adenosylhomocysteine hydrolase” (J Med Chem, 1988).
# What was measured:
# Human alphaherpesvirus 2 [1] = test: Antiviral activity against herpes simplex virus type 2 HSV-2 (F) expressed as viral rating (VR); assay type: functional
# Human alphaherpesvirus 1 [2] = test: Antiviral activity against herpes simplex virus type 1 HSV-1 (F) expressed as viral rating (VR); assay type: functional
# Vaccinia virus [3] = test: Antiviral activity against vaccinia virus in HEP -2 cells; assay type: functional, Orthopoxvirus vaccinia
# Human alphaherpesvirus 1 [4] = test: Concentration at which 50% of the herpes simplex virus type 1 HSV-1 (F) induced cytopathic effect are inhibited is determined; assay type: functional; conditions: read-out: ED50 (the source's name)
# Vaccinia virus [5] = conditions: read-out: ED50
# HEp-2 = test: Cytotoxic concentration against HEP-2 cells; assay type: functional, cell-based; conditions: Homo sapiens
# Human alphaherpesvirus 2 [6] = test: Concentration at which 50% of the herpes simplex virus type 2 […] (F) induced cytopathic effect are inhibited is determined; assay type: functional; conditions: read-out: ED50 (the source's name)
# Vaccinia virus [7] = test: Inhibition of vaccinia virus induced cytopathic effects in HEP -2 cells; assay type: functional; conditions: Orthopoxvirus vaccinia, read-out: ED50 (the source's name)
smiles,measurement,setting,value
Nc1ncnc2c1ncn2C1C(O)C(O)C(CO)C1O (stereo not drawn),VR,Human alphaherpesvirus 2 [1],0.3
same,VR,Human alphaherpesvirus 1 [2],0.6
same,VR,Vaccinia virus [3],0.8
same,EC50,Human alphaherpesvirus 1 [4],100 µM
same,EC50,Vaccinia virus [5],18 µM
same,Concentration,HEp-2,> 320 µM
same,EC50,Human alphaherpesvirus 2 [6],100 µM
Nc1nc2c(ncn2COC(CO)CO)c(=O)[nH]1 [GANCICLOVIR],VR,Human alphaherpesvirus 2 [1],1.6
same,VR,Human alphaherpesvirus 1 [2],1.4
same,EC50,Human alphaherpesvirus 1 [4],< 1 µM
same,Concentration,HEp-2,> 3200 µM
same,EC50,Human alphaherpesvirus 2 [6],1 µM
Nc1ncnc2c1ncn2C1C(O)C(F)C(CO)C1O (stereo not drawn),VR,Human alphaherpesvirus 2 [1],0
same,VR,Human alphaherpesvirus 1 [2],0
same,EC50,Human alphaherpesvirus 1 [4],225 µM
same,Concentration,HEp-2,225 µM
same,EC50,Human alphaherpesvirus 2 [6],225 µM
Nc1ncnc2c1ncn2[C@H]1[C@H](O)[C@H](O)[C@@H](CO)[C@H]1F,EC50,Vaccinia virus [7],0.5 µM
same,VR,Human alphaherpesvirus 2 [1],0.4
same,VR,Human alphaherpesvirus 1 [2],0.4
same,VR,Vaccinia virus [3],0.8
same,EC50,Human alphaherpesvirus 1 [4],10 µM
same,Concentration,HEp-2,320 µM
same,EC50,Human alphaherpesvirus 2 [6],10 µM
Nc1ncnc2c1ncn2[C@H]1[C@H](O)[C@H](O)[C@@H](CO)[C@@H]1F,VR,Human alphaherpesvirus 2 [1],0.1
same,VR,Human alphaherpesvirus 1 [2],0.1
same,VR,Vaccinia virus [3],0.4
same,EC50,Human alphaherpesvirus 1 [4],90 µM
same,EC50,Vaccinia virus [5],63 µM
same,Concentration,HEp-2,> 320 µM
same,EC50,Human alphaherpesvirus 2 [6],90 µM
Nc1ncnc2c1ncn2[C@@H](C=O)O[C@@H](C=O)CO,VR,Human alphaherpesvirus 2 [1],0
same,VR,Vaccinia virus [3],1.3
same,EC50,Vaccinia virus [5],0.5 µM
same,Concentration,HEp-2,100 µM
same,EC50,Human alphaherpesvirus 2 [6],> 3200 µM
C=C1C(CO)C(O)C(O)C1n1cnc2c(N)ncnc21 (stereo not drawn),VR,Human alphaherpesvirus 2 [1],0.3
same,VR,Human alphaherpesvirus 1 [2],0
same,VR,Vaccinia virus [3],0.9
same,EC50,Human alphaherpesvirus 1 [4],16 µM
same,EC50,Vaccinia virus [5],0.55 µM
same,Concentration,HEp-2,50 µM
same,EC50,Human alphaherpesvirus 2 [6],5 µM
